{"source": "paper PMC9369335", "about": "“Tailoring the Structure of Cell Penetrating DNA and RNA Binding Nucleopeptides” (International Journal of Molecular Sciences, 2022)", "test_system": "HT29, CCRF-CEM and Jurkat cells", "experiment": "Cellular and nuclear uptake of FITC-labelled nucleopeptides by flow cytometry", "assay_type": "cell-based, human", "conditions": "10 µM, 3 h, 37 °C, comparison in words", "experimental": "The promising results achieved with 32 and 33 in terms of DNA and RNA recognition and binding studies prompted us to investigate their capability to cross the cellular membrane and to distribute between cytoplasm and nucleus. Specifically, cell penetration experiments were carried out employing 34 and 35 (the FITC-labelled derivatives of 32 and 33, respectively) on three different cancer cell lines (Jurkat, HT29 and CEM). […]\nThe fluorescence of Fluorescein Isothiocyanate (FITC) (excitation 488 nm, emission 525 nm) was used to evaluate the intracellular and intranuclear nucleopeptides uptake using flow cytometry. […] To evaluate cellular uptake, the cell pellets were suspended in 500 µL of PBS and analyzed by flow cytometry. For nuclear uptake, the nuclei were extracted with PBS-Triton (0.5%) for 15 min at room temperature (RT), washed with PBS-Triton (0.1%), suspended in 500 µL of PBS and analyzed by FACS ARIA III flow cytometry (BD Bioscience, Mountain View, CA, USA) with DIVA software 8.01. […] The uptake was evaluated as mean fluorescence and was analyzed using FlowJo 10.7.1 software.", "note": "Square brackets hold non-standard residues; d marks the D form. Peptide text beside a SMILES is read from it. * marks the point of attachment. FITC = O=C1OC2(c3ccc(O)cc3Oc3cc(O)ccc32)c2ccc(NC(=S)*)cc21; Acetyl(thymin-1-yl) = Cc1cn(CC(=O)*)c(=O)[nH]c1=O; Dab = NCC[C@H](N)C(=O)O; Ahx = NCCCCCC(=O)O", "data": [{"smiles": "Cc1cn(CC(=O)NCC[C@H](NC(=O)CCCCCNC(=S)Nc2ccc3c(c2)C(=O)OC32c3ccc(O)cc3Oc3cc(O)ccc32)C(=O)N[C@@H](CCCNC(=N)N)C(=O)N[C@@H](CCNC(=O)Cn2cc(C)c(=O)[nH]c2=O)C(=O)N[C@@H](CCCNC(=N)N)C(=O)N[C@@H](CCNC(=O)Cn2cc(C)c(=O)[nH]c2=O)C(=O)N[C@@H](CCCNC(=N)N)C(=O)N[C@@H](CCNC(=O)Cn2cc(C)c(=O)[nH]c2=O)C(=O)N[C@@H](CCCNC(=N)N)C(=O)N[C@@H](CCNC(=O)Cn2cc(C)c(=O)[nH]c2=O)C(=O)N[C@@H](CCCNC(=N)N)C(=O)N[C@@H](CCNC(=O)Cn2cc(C)c(=O)[nH]c2=O)C(=O)N[C@@H](CCCNC(=N)N)C(N)=O)c(=O)[nH]c1=O", "note": "[compound 34] ({FITC-Ahx}-[Dab](Acetyl(thymin-1-yl))R[Dab](Acetyl(thymin-1-yl))R[Dab](Acetyl(thymin-1-yl))R[Dab](Acetyl(thymin-1-yl))R[Dab](Acetyl(thymin-1-yl))R[Dab](Acetyl(thymin-1-yl))R-NH2)", "values": [{"measurement": "concentration in cytoplasm (cellular uptake, mean fluorescence)", "setting": "1 × 10^6 cells", "value": "significantly higher than 35"}, {"measurement": "concentration in nucleus (nuclear uptake, mean fluorescence)", "setting": "nuclei extracted with PBS-Triton 0.5%", "value": "significantly higher than 35"}]}]}
